Experiments:
[1] = tested on: Human immunodeficiency virus 1; experiment: Antiviral activity against HIV1 infected in human C8166 cells assessed as inhibition of viral replication after 2 days by luciferase assay; type: functional, organism-based; details: Human immunodeficiency virus 1, C8166, 48 h
[2] = Induction of HIV1 NL4-3 nucleocapsid protein disassembly expressed in expressed in Escherichia coli BL21 (DE3) using 5'-end fluorescein labeled (TG)25 oligonucleotide after 2 hrs by fluorescence assay; parameters: species or system Human immunodeficiency virus 1
[3] = Inhibition of HIV1 NL4-3 nucleocapsid protein assembly expressed in expressed in Escherichia coli BL21 (DE3) using 5'-end fluorescein labeled (TG)25 oligonucleotide after 2 hrs by fluorescence assay; parameters: species or system Human immunodeficiency virus 1
[4] = Cytotoxicity against human C8166 cells; type: cell-based
[5] = Permeability across human Caco2 cells; type: ADME, cell-based; details: Caco-2, read-out: permeability
Cytochrome P450 3A4 = Cytochrome P450 3A4 (Homo sapiens, UniProt P08684); experiment: Inhibition of CYP3A4 (unknown origin); type: ADME
[6] = Half life in human liver microsomes; type: ADME, Microsome
Cytochrome P450 2D6 = Cytochrome P450 2D6 (Homo sapiens, UniProt P10635); experiment: Inhibition of CYP2D6 (unknown origin); type: ADME
[7] = Volume of distribution at steady state in iv dosed rat; type: ADME, organism-based; details: in vivo, read-out: Vdss
[8] = Half life in rat liver microsomes; type: ADME, Microsome
[9] = Half life in iv dosed rat; type: ADME, organism-based; details: in vivo
Rattus norvegicus = experiment: Total clearance in iv dosed rat relative to liver blood perfusion rate; type: ADME, organism-based; details: in vivo

Sequence of Cytochrome P450 2D6 (P10635 whole entry): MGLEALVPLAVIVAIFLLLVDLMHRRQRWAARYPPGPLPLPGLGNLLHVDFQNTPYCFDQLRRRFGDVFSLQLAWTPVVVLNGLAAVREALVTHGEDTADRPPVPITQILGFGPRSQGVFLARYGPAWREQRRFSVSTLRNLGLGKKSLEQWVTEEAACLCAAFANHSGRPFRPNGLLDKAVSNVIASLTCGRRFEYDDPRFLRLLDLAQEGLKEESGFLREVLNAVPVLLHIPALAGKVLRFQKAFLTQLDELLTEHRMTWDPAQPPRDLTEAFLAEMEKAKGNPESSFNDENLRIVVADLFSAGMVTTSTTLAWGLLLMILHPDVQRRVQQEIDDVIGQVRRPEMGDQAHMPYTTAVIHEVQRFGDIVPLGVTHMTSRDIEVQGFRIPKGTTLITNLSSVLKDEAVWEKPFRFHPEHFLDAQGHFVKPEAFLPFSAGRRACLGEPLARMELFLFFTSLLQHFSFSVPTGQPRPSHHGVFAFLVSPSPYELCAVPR
Sequence of Cytochrome P450 3A4 (P08684 whole entry): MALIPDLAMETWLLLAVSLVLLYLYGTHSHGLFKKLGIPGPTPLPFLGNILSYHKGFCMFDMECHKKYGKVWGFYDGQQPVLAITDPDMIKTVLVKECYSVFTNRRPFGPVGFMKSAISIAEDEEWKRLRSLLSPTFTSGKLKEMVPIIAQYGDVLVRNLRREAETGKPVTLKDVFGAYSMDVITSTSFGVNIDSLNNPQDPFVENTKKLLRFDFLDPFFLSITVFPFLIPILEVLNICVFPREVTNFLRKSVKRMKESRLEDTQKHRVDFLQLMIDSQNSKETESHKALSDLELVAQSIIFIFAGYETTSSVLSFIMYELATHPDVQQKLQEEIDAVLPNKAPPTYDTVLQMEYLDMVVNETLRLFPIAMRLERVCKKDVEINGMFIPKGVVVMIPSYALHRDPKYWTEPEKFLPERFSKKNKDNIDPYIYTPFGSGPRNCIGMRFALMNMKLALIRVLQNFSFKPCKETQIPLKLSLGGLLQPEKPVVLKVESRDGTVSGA

Structure (SMILES): CCN1C(=O)N(c2ccc(O)c(-c3cnn(C)c3)c2)C(=O)N(c2ccccc2)c2cc(C(F)(F)F)ccc21
- EC50 [1]: 240 nM
- IC50 [2]: 120 nM

Structure (SMILES): CCN1C(=O)C(c2cccc(-c3cnn(C)c3)c2)C(=O)N(c2ccccc2)c2cc(C(F)(F)F)ccc21 (stereo not given)
- EC50 [1]: 710 nM
- IC50 [3]: 630 nM
- IC50 [2]: 130 nM
- CC50 [4]: 20000 nM

Structure (SMILES): CCN1C(=O)C(c2ccc(-c3cnc(OC)nc3)cc2)C(=O)N(c2ccccc2)c2cc(C(F)(F)F)ccc21 (stereo not given)
- EC50 [1]: 620 nM
- IC50 [3]: 450 nM
- IC50 [2]: 270 nM
- CC50 [4]: > 20000 nM

Structure (SMILES): CCN1C(=O)C2(CCc3c2ccc(O)c3-c2cnn(C)c2)C(=O)N(c2ccccc2)c2cc(C(F)(F)F)ccc21 (stereo not given)
- EC50 [1]: 780 nM
- IC50 [2]: 200 nM

Structure (SMILES): CCN1C(=O)C(c2ccc(-c3ccncc3)cc2)C(=O)N(c2ccccc2)c2cc(C(F)(F)F)ccc21 (stereo not given)
- EC50 [1]: 570 nM
- IC50 [3]: 390 nM
- IC50 [2]: 210 nM
- CC50 [4]: 15000 nM

Structure (SMILES): COc1ccc(C2C(=O)N(C)c3ccc(C(F)(F)F)cc3N(c3ccccc3)C2=O)cc1 (stereo not given)
- EC50 [1]: 3200 nM
- IC50 [3]: 1100 nM

Structure (SMILES): CCN1C(=O)C(c2cc(-c3cnn(C)c3)ccc2O)C(=O)N(c2ccccc2)c2cc(C(F)(F)F)ccc21 (stereo not given)
- Papp [5]: 4.3 ×10⁻⁶ cm/s
- EC50 [1]: 180 nM
- INH (Cytochrome P450 3A4): 1.7 µM
- IC50 [2]: 170 nM
- half-life [6]: 2.5 h
- INH (Cytochrome P450 2D6): > 30 µM

Structure (SMILES): CCN1C(=O)C(c2ccc(O)c(-c3cnn(C)c3)c2)C(=O)N(c2ccccc2)c2cc(C(F)(F)F)ccc21 (stereo not given)
- Papp [5]: < 0.1 ×10⁻⁶ cm/s
- EC50 [1]: 190 nM
- INH (Cytochrome P450 3A4): 5.7 µM
- IC50 [2]: 120 nM
- half-life [6]: 2 h
- INH (Cytochrome P450 2D6): > 30 µM

Structure (SMILES): CCCn1cc(-c2cc(C3C(=O)N(CC)c4ccc(C(F)(F)F)cc4N(c4ccccc4)C3=O)cc(OC)c2O)cn1 (stereo not given)
- Vd [7]: 15 L/kg
- Papp [5]: 9.9 ×10⁻⁶ cm/s
- half-life [8]: 1.12 h
- EC50 [1]: 70 nM
- INH (Cytochrome P450 3A4): 3.6 µM
- half-life [9]: 4.8 h
- IC50 [2]: 160 nM
- CL (Rattus norvegicus): 50%
- half-life [6]: 1.43 h
- INH (Cytochrome P450 2D6): > 30 µM

Structure (SMILES): CCN1C(=O)C(c2ccccc2-c2ccncc2)C(=O)N(c2ccccc2)c2cc(C(F)(F)F)ccc21 (stereo not given)
- IC50 [3]: > 7200 nM

Structure (SMILES): CCN1C(=O)C(c2ccc(-c3cccnc3)cc2)C(=O)N(c2ccccc2)c2cc(C(F)(F)F)ccc21 (stereo not given)
- EC50 [1]: 400 nM
- IC50 [3]: 400 nM
- IC50 [2]: 320 nM
- CC50 [4]: 7000 nM

Structure (SMILES): CCN1C(=O)C(c2cccc(-c3ccnn3C)c2)C(=O)N(c2ccccc2)c2cc(C(F)(F)F)ccc21 (stereo not given)
- EC50 [1]: 990 nM
- IC50 [3]: 670 nM
- IC50 [2]: 300 nM
- CC50 [4]: 30000 nM

Structure (SMILES): CCN1C(=O)C(c2cc(-c3cnn(C)c3)c(O)cc2O)C(=O)N(c2ccccc2)c2cc(C(F)(F)F)ccc21 (stereo not given)
- Papp [5]: 7.7 ×10⁻⁶ cm/s
- half-life [8]: 0.183 h
- EC50 [1]: 140 nM
- INH (Cytochrome P450 3A4): 4.5 µM
- IC50 [2]: 100 nM
- half-life [6]: 1.85 h
- INH (Cytochrome P450 2D6): 13 µM

Structure (SMILES): COc1ccccc1C1C(=O)N(C)c2ccc(C(F)(F)F)cc2N(c2ccccc2)C1=O (stereo not given)
- EC50 [1]: 2700 nM
- IC50 [3]: 710 nM

Structure (SMILES): CCN1C(=O)C(c2ccc(-c3cnco3)cc2)C(=O)N(c2ccccc2)c2cc(C(F)(F)F)ccc21 (stereo not given)
- EC50 [1]: 1100 nM
- IC50 [3]: 760 nM
- IC50 [2]: 470 nM
- CC50 [4]: > 7000 nM

Structure (SMILES): CCN1C(=O)C(c2cccc(-c3cccnc3)c2)C(=O)N(c2ccccc2)c2cc(C(F)(F)F)ccc21 (stereo not given)
- EC50 [1]: 1000 nM
- IC50 [3]: 480 nM
- CC50 [4]: 20000 nM

Structure (SMILES): CCN1C(=O)C(c2cccc(-c3ccncc3)c2)C(=O)N(c2ccccc2)c2cc(C(F)(F)F)ccc21 (stereo not given)
- EC50 [1]: 790 nM
- IC50 [3]: 530 nM
- IC50 [2]: 190 nM
- CC50 [4]: 17000 nM

Structure (SMILES): CCN1C(=O)C(c2ccc(O)cc2)C(=O)N(c2ccccc2)c2cc(C(F)(F)F)ccc21 (stereo not given)
- EC50 [1]: 1000 nM
- IC50 [3]: 400 nM
- IC50 [2]: 180 nM

Structure (SMILES): CCN1C(=O)C2(CCc3cc(O)c(-c4cnn(C)c4)cc32)C(=O)N(c2ccccc2)c2cc(C(F)(F)F)ccc21 (stereo not given)
- EC50 [1]: 300 nM
- IC50 [2]: 130 nM

Structure (SMILES): CN1C(=O)C(c2ccccc2)C(=O)N(c2ccccc2)c2cc(C(F)(F)F)ccc21 (stereo not given)
- IC50 [2]: 680 nM

Structure (SMILES): CCN1C(=O)C(c2ccc(O)c(OC)c2)C(=O)N(c2ccccc2)c2cc(C(F)(F)F)ccc21 (stereo not given)
- EC50 [1]: 530 nM
- IC50 [3]: 590 nM
- IC50 [2]: 110 nM
- CC50 [4]: 42000 nM

Structure (SMILES): CCN1C(=O)C(c2ccccc2)C(=O)N(c2ccccc2)c2cc(C(F)(F)F)ccc21 (stereo not given)
- IC50 [3]: 730 nM
- IC50 [2]: 480 nM

Structure (SMILES): CCN1C(=O)C(c2cc(-c3cn[nH]c3)c(O)cc2O)C(=O)N(c2ccccc2)c2cc(C(F)(F)F)ccc21 (stereo not given)
- Papp [5]: < 0.1 ×10⁻⁶ cm/s
- half-life [8]: 0.25 h
- EC50 [1]: 130 nM
- INH (Cytochrome P450 3A4): 4.8 µM
- IC50 [2]: 50 nM
- half-life [6]: > 5 h
- INH (Cytochrome P450 2D6): 8.9 µM

Structure (SMILES): COc1cccc(C2C(=O)N(C)c3ccc(C(F)(F)F)cc3N(c3ccccc3)C2=O)c1 (stereo not given)
- EC50 [1]: 1200 nM
- IC50 [3]: 550 nM

— ChEMBL document CHEMBL2385055, “Optimization of a 1,5-dihydrobenzo[b][1,4]diazepine-2,4-dione series of HIV capsid assembly inhibitors 2: structure-activity relationships (SAR) of the C3-phenyl moiety” (Bioorg Med Chem Lett, 2013)
